From ChEMBL document CHEMBL1130277, “Three-dimensional quantitative structure-activity relationships from molecular similarity matrices and genetic neural networks. 2. Applications” (J Med Chem, 1997)

Tests used:
[1] = target: T1, Aryl hydrocarbon receptor (Homo sapiens, UniProt P35869)
T1 sequence (P35869 whole entry): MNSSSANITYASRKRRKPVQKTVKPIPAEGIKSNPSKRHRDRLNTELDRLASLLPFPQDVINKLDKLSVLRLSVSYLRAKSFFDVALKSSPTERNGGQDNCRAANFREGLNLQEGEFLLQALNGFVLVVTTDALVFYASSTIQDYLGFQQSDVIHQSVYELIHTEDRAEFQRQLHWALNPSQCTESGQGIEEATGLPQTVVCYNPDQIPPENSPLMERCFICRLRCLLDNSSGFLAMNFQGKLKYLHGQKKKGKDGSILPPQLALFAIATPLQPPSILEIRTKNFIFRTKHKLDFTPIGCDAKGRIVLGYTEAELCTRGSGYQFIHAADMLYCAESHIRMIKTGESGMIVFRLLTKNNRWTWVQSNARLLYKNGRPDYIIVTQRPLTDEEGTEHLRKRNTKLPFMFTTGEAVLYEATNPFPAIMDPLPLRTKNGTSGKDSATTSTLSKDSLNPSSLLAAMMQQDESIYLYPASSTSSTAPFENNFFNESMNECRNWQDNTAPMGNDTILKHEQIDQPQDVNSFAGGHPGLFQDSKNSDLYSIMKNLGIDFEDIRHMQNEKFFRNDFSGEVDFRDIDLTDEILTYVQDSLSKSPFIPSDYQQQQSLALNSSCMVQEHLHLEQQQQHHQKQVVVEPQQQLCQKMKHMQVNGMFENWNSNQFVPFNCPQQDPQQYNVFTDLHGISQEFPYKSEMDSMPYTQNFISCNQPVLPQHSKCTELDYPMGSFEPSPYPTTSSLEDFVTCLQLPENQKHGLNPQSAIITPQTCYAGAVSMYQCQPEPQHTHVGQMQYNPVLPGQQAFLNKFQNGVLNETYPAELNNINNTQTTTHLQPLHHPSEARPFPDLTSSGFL
Description: Affinity on cytosolic Aromatic hydrocarbon receptor (Ah)

Acetylcholinesterase = Acetylcholinesterase (Homo sapiens, UniProt P22303)
Description: Inhibition acetylcholinesterase (AChE) enzyme.

[2] = target: GABA-A receptor; anion channel
Description: Inhibition on Benzodiazepine receptor

Acetylcholinesterase, sequence (P22303 whole entry): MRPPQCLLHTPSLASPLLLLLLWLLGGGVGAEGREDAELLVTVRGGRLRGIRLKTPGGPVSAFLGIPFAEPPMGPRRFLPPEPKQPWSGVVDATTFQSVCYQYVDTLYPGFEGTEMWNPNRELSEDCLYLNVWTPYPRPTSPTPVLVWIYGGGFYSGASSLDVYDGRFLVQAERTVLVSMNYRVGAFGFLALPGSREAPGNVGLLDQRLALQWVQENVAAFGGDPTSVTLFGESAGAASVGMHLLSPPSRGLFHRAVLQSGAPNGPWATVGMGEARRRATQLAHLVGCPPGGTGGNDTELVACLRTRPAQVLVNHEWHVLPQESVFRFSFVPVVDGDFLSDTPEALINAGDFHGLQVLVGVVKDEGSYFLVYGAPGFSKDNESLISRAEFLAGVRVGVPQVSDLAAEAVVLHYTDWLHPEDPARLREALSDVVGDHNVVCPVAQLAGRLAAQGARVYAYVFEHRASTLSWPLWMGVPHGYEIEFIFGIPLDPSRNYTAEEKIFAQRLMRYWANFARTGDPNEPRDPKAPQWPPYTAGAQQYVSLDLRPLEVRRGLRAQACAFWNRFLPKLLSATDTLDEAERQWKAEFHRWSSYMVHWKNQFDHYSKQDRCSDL

**Q.** How did the EC50 [1] turn out when Brc1cc2c(cc1Br)Oc1c(Br)c(Br)cc(Br)c1O2 was run?
**A.** 0.017 µM

**Q.** How did the EC50 [1] turn out when Clc1cc2oc3c(Cl)cc(Cl)c(Cl)c3c2cc1Cl was run?
**A.** 1.3 µM

**Q.** For Cc1ccc(O)cc1[N+](C)(C)C, which IC50 (Acetylcholinesterase) is on record?
**A.** 2.82 µM

**Q.** C[N+](C)(C)CCCl was tested. Which IC50 (Acetylcholinesterase) did it give?
**A.** 2390 µM

**Q.** How did the IC50 (Acetylcholinesterase) turn out when C[N+]1(C)CCO[C@@](O)(c2ccc([N+](=O)[O-])cc2)C1 was run?
**A.** 5120 µM

**Q.** For C[N+](C)(C)c1cccc(O)c1, which IC50 (Acetylcholinesterase) is on record?
**A.** 0.973 µM

**Q.** How did the pIC50 [2] turn out when COc1ccc(-n2nc3c4ccccc4[nH]cc-3c2=O)cc1 was run?
**A.** 10

**Q.** CCC(=O)Oc1ccc(C)c([N+](C)(C)C)c1 was tested. Which IC50 (Acetylcholinesterase) did it give?
**A.** 69 µM

**Q.** How did the IC50 (Acetylcholinesterase) turn out when COc1cc([N+](C)(C)C)ccc1C was run?
**A.** 122 µM

**Q.** How did the pIC50 [2] turn out when CCCC(=O)c1cc2c(cn1)[nH]c1ccccc12 was run?
**A.** 7.64

**Q.** With CC(=O)Oc1cccc([N+](C)(C)C)c1 as the compound, how does the IC50 (Acetylcholinesterase) read?
**A.** 3.01 µM

**Q.** Clc1cc(Cl)c2c(c1)oc1c(Cl)cccc12 was tested. Which EC50 [1] did it give?
**A.** 4.37 µM

**Q.** For Clc1cc(Cl)c2c(c1)oc1c(Cl)cc(Cl)c(Cl)c12, which EC50 [1] is on record?
**A.** 20 µM

**Q.** For Clc1cc(Cl)c2oc3c(Cl)cc(Cl)c(Cl)c3c2c1, which EC50 [1] is on record?
**A.** 3.1 µM

**Q.** How did the EC50 [1] turn out when Clc1cc(Cl)c(-c2cc(Cl)c(Cl)c(Cl)c2)c(Cl)c1 was run?
**A.** 99.1 µM

**Q.** With Cc1ccc2c(c1)[nH]c1c3c4ccccc4nc-3c[nH]c12 as the compound, how does the pIC50 [2] read?
**A.** 8.1

**Q.** How did the EC50 [1] turn out when Clc1cc(Cl)c2c(c1)Oc1cc(Cl)c(Cl)cc1O2 was run?
**A.** 0.794 µM

**Q.** For Clc1c(Cl)c(Cl)c2c(c1Cl)Oc1ccccc1O2, which EC50 [1] is on record?
**A.** 1.3 µM

**Q.** With CC(=O)Nc1cccc([N+](C)(C)C)c1 as the compound, how does the IC50 (Acetylcholinesterase) read?
**A.** 1000 µM

**Q.** Which EC50 [1] does the source give for Clc1c(Cl)c(Cl)c2c(c1Cl)Oc1c(Cl)c(Cl)c(Cl)c(Cl)c1O2 here?
**A.** 10 µM

**Q.** For O=C1C2C=Nc3ccccc3C2=NN1c1ccccc1 (stereo unspecified) [CGS-8216], which pIC50 [2] is on record?
**A.** 9.4

**Q.** For Clc1ccc2c(c1)Oc1cc(Cl)c(Cl)cc1O2, which EC50 [1] is on record?
**A.** 0.071 µM

**Q.** With CCC(C)Oc1cc2c3ccccc3nc-2c[nH]1 (stereo unspecified) as the compound, how does the pIC50 [2] read?
**A.** 6.33

**Q.** Clc1cc2c(oc3cc(Cl)c(Cl)c(Cl)c32)c(Cl)c1Cl was tested. Which EC50 [1] did it give?
**A.** 0.27 µM

**Q.** Which EC50 [1] does the source give for Brc1ccc2c(c1)Oc1ccc(Br)cc1O2 here?
**A.** 0.0155 µM

**Q.** How did the pIC50 [2] turn out when CC(C)Oc1cc2c(cn1)[nH]c1ccccc12 was run?
**A.** 6.29

**Q.** For Clc1cc(-c2ccccc2)c(Cl)c(Cl)c1Cl, which EC50 [1] is on record?
**A.** 140 µM

**Q.** For Clc1cc2c(oc3c(Cl)c(Cl)c(Cl)cc32)c(Cl)c1Cl, which EC50 [1] is on record?
**A.** 0.0468 µM

**Q.** Which EC50 [1] does the source give for Clc1cc2c(cc1Cl)Oc1cc(Cl)c(Cl)cc1O2 [2,3,7,8-TETRACHLORODIBENZO-P-DIOXIN] here?
**A.** 0.01 µM

**Q.** Which EC50 [1] does the source give for Clc1ccc2oc3c(Cl)cc(Cl)c(Cl)c3c2c1 here?
**A.** 10 µM

**Q.** Which pIC50 [2] does the source give for COc1cc2c(cn1)[nH]c1ccccc12 here?
**A.** 6.91

**Q.** With CC(C)(C)[C@@]1(O)C[N+](C)(C)CCO1 as the compound, how does the IC50 (Acetylcholinesterase) read?
**A.** 3710 µM

**Q.** Which pIC50 [2] does the source give for c1ccc(COc2cc3c4ccccc4nc-3c[nH]2)cc1 here?
**A.** 6

**Q.** For CC(C)COc1cc2c(cn1)[nH]c1ccccc12, which pIC50 [2] is on record?
**A.** 7.03

**Q.** How did the EC50 [1] turn out when Clc1cc(Cl)c(-c2cc(Cl)c(Cl)cc2Cl)cc1Cl [2,2',4,4',5,5'-HEXACHLOROBIPHENYL] was run?
**A.** 79.4 µM

**Q.** How did the EC50 [1] turn out when Clc1ccc2oc3c(Cl)c(Cl)c(Cl)cc3c2c1 was run?
**A.** 0.2 µM

**Q.** With Brc1cc2c(cc1Br)Oc1cc(Br)c(Br)cc1O2 as the compound, how does the EC50 [1] read?
**A.** 0.0015 µM

**Q.** Cc1cccc2c1[nH]c1c3c4ccccc4nc-3c[nH]c12 was tested. Which pIC50 [2] did it give?
**A.** 7.17

**Q.** Which pIC50 [2] does the source give for Cc1nccc2c1[nH]c1ccccc12 [HARMAN] here?
**A.** 4.91

**Q.** With Clc1cc2oc3c(Cl)c(Cl)c(Cl)c(Cl)c3c2cc1Cl as the compound, how does the EC50 [1] read?
**A.** 0.23 µM

**Q.** For Brc1cc(Br)c2c(c1)Oc1cc(Br)c(Br)cc1O2, which EC50 [1] is on record?
**A.** 0.002 µM

**Q.** For CC(C)(C)COC(=O)c1cc2c3ccccc3nc-2c[nH]1, which pIC50 [2] is on record?
**A.** 6.12

**Q.** Which EC50 [1] does the source give for Clc1ccc(-c2ccc(Cl)c(Cl)c2Cl)cc1Cl here?
**A.** 4.27 µM

**Q.** Which EC50 [1] does the source give for Brc1ccc2c(c1)Oc1cc(Br)c(Br)cc1O2 here?
**A.** 0.00117 µM

**Q.** Which IC50 (Acetylcholinesterase) does the source give for CC(=O)Oc1cc([N+](C)(C)C)ccc1C here?
**A.** 0.659 µM

**Q.** How did the IC50 (Acetylcholinesterase) turn out when COc1ccc(C)c([N+](C)(C)C)c1 was run?
**A.** 345 µM

**Q.** Which pIC50 [2] does the source give for CCOC(=O)c1cc2c(cn1)oc1ccccc12 here?
**A.** 5.07

**Q.** Which IC50 (Acetylcholinesterase) does the source give for C[C@@]1(O)C[N+](C)(C)CCO1 here?
**A.** 1730 µM

**Q.** With COC(=O)c1cc2c(cn1)[nH]c1ccccc12 [BETA-CCM] as the compound, how does the pIC50 [2] read?
**A.** 8.3

**Q.** Which EC50 [1] does the source give for Clc1cc2c(cc1Cl)Oc1cc(Br)c(Cl)cc1O2 here?
**A.** 0.0115 µM

**Q.** How did the pIC50 [2] turn out when CC(C)CCOc1cc2c3ccccc3nc-2c[nH]1 was run?
**A.** 6.37

**Q.** How did the IC50 (Acetylcholinesterase) turn out when C[N+]1(C)CCO[C@@](O)(c2ccc(N)cc2)C1 was run?
**A.** 690 µM

**Q.** With Clc1ccc2c(oc3c(Cl)cc(Cl)c(Cl)c32)c1Cl as the compound, how does the EC50 [1] read?
**A.** 0.0678 µM

**Q.** With CCSCC[N+](C)(C)C as the compound, how does the IC50 (Acetylcholinesterase) read?
**A.** 1510 µM

**Q.** Which IC50 (Acetylcholinesterase) does the source give for CC(=O)Nc1ccc([C@@]2(O)C[N+](C)(C)CCO2)cc1 here?
**A.** 2070 µM

**Q.** With C[N+](C)(C)c1cccc([N+](=O)[O-])c1 as the compound, how does the IC50 (Acetylcholinesterase) read?
**A.** 628 µM

**Q.** How did the IC50 (Acetylcholinesterase) turn out when Cc1ccc([N+](C)(C)C)cc1O was run?
**A.** 3.11 µM

**Q.** How did the EC50 [1] turn out when Clc1ccc2c(c1)oc1cc(Cl)c(Cl)c(Cl)c12 was run?
**A.** 0.219 µM

**Q.** How did the EC50 [1] turn out when Clc1cc(Cl)c2c(c1)oc1c(Cl)c(Cl)c(Cl)cc12 was run?
**A.** 0.2 µM

**Q.** Clc1cc(Cl)c2c(c1)oc1ccc(Cl)cc12 was tested. Which EC50 [1] did it give?
**A.** 85.1 µM

**Q.** C=CCCC[N+](C)(C)C was tested. Which IC50 (Acetylcholinesterase) did it give?
**A.** 1130 µM
